Results published in CN117800914A, “一种抗SARS-CoV-2病毒奥密克戎突变种抑制剂” (Second Military Medical University SMMU, priority 2023, dated 2024).

Test system: SARS-CoV-2 Omicron mutant BA.2 (SARS-CoV-2奥密克戎毒突变种BA.2)
Type: cell-based, SARS-CoV-2 Omicron BA.2
Details: 20 h

Structure (SMILES)	IC50 [µM]
CO[C@H]1/C=C/C=C/C=C/C[C@H](O)[C@H](C)[C@@H](OC(=O)[C@@H](C)NC(=O)CC(C)C)/C(C)=C\CCc2ccc(F)c(c2)NC(=O)C1 [B3]	1.19
COc1cc2cc(c1)NC(=O)C[C@@H](OC)/C=C/C=C/C=C/C[C@H](O)[C@H](C)[C@@H](OC(=O)[C@@H](C)NC(=O)CC(C)C)/C(C)=C\CC2 [C7]	0.825
COc1cc2c(O)c(c1)NC(=O)C[C@@H](OC)/C=C/C=C/C=C/C[C@H](O)[C@H](C)[C@@H](OC(=O)[C@@H](C)NC(=O)CC(C)C)/C(C)=C\CC2 [C8]	0.4
CO[C@H]1/C=C/C=C/C=C/C[C@H](OC(=O)[C@@H](C)NC(=O)CCC(C)C)[C@H](C)[C@@H](O)/C(C)=C\CCc2ccc(F)c(c2)NC(=O)C1 [B8]	1.1
CCC(C)C(=O)N[C@H](C)C(=O)O[C@H]1C/C=C/C=C/C=C/[C@H](OC)CC(=O)Nc2cc(ccc2F)CC/C=C(/C)[C@H](O)[C@H]1C (some centres unmarked) [B5]	0.2
CO[C@H]1/C=C/C=C/C=C/C[C@H](OC(=O)[C@@H](C)NC(=O)CC(C)C)[C@H](C)[C@@H](O)/C(C)=C\CCc2cccc(c2)NC(=O)C1 [D1]	> 5
CO[C@H]1/C=C/C=C/C=C/C[C@H](OC(=O)[C@@H](C)NC(=O)CCC(C)C)[C@H](C)[C@@H](O)/C(CO)=C\CCc2cc(F)cc(c2)NC(=O)C1 [A6]	0.45
CO[C@H]1/C=C/C=C/C=C/C[C@H](OC(=O)[C@@H](C)NC(=O)CC(C)C)[C@H](C)[C@@H](O)/C(C)=C\CCc2ccc(F)c(c2)NC(=O)C1 [B1]	0.3
C/C=C(\C)C(=O)N[C@H](C)C(=O)O[C@H]1C/C=C/C=C/C=C/[C@H](OC)CC(=O)Nc2cc(ccc2F)CC/C=C(/C)[C@H](O)[C@H]1C [B6]	0.413

Test system: SARS-CoV-2 mutant strains (SARS-CoV-2突变株)
Details: treatment of SARS-CoV-2 mutant strains; cited from earlier work

Structure (SMILES)	clinical performance in treating SARS-CoV-2 mutant strains (in words)
CCC(CC)COC(=O)[C@H](C)N[P@](=O)(OC[C@H]1O[C@@](C#N)(c2ccc3c(N)ncnn23)[C@H](O)[C@@H]1O)Oc1ccccc1 [瑞德西韦]	不尽如人意
NC(=O)c1nc(F)c[nH]c1=O [法维拉韦]	不尽如人意
